{"source": "PubChem BioAssay (NCI)", "test_in_all_cases": "growth of human tumour cells (NCI), 48 h", "key": {"A498 renal": {"tested_on": "A498 renal"}, "MCF7 breast": {"tested_on": "MCF7 breast"}, "SN12C renal": {"tested_on": "SN12C renal"}, "ACHN renal": {"tested_on": "ACHN renal"}, "SR leukemia": {"tested_on": "SR leukemia"}, "TK-10 renal": {"tested_on": "TK-10 renal"}, "HOP-92 NSCLC": {"tested_on": "HOP-92 NSCLC"}, "EKVX NSCLC": {"tested_on": "EKVX NSCLC"}, "K-562 leukemia": {"tested_on": "K-562 leukemia"}, "NCI-H460 lung": {"tested_on": "NCI-H460 lung"}, "U251 CNS": {"tested_on": "U251 CNS"}, "HT29 colon": {"tested_on": "HT29 colon"}, "IGROV1 ovarian": {"tested_on": "IGROV1 ovarian"}, "SNB-19 CNS": {"tested_on": "SNB-19 CNS"}, "A549 NSCLC": {"tested_on": "A549 NSCLC"}, "HS 578T breast": {"tested_on": "HS 578T breast"}, "HL-60(TB) leukemia": {"tested_on": "HL-60(TB) leukemia"}, "MDA-N": {"tested_on": "MDA-N"}, "SF-539 CNS": {"tested_on": "SF-539 CNS"}, "NCI-H23 lung": {"tested_on": "NCI-H23 lung"}, "LOX IMVI melanoma": {"tested_on": "LOX IMVI melanoma"}, "NCI-H522 lung": {"tested_on": "NCI-H522 lung"}, "DU-145 prostate": {"tested_on": "DU-145 prostate"}, "OVCAR-3 ovarian": {"tested_on": "OVCAR-3 ovarian"}, "HOP-62 NSCLC": {"tested_on": "HOP-62 NSCLC"}, "NCI/ADR-RES ovarian": {"tested_on": "NCI/ADR-RES ovarian"}, "786-0 renal": {"tested_on": "786-0 renal"}, "OVCAR-5 ovarian": {"tested_on": "OVCAR-5 ovarian"}, "CAKI-1 renal": {"tested_on": "CAKI-1 renal"}, "MDA-MB-435": {"tested_on": "MDA-MB-435"}, "SK-MEL-5 melanoma": {"tested_on": "SK-MEL-5 melanoma"}, "CCRF-CEM leukemia": {"tested_on": "CCRF-CEM leukemia"}, "OVCAR-8 ovarian": {"tested_on": "OVCAR-8 ovarian"}, "OVCAR-4 ovarian": {"tested_on": "OVCAR-4 ovarian"}, "SF-295 CNS": {"tested_on": "SF-295 CNS"}, "SNB-75 CNS": {"tested_on": "SNB-75 CNS"}, "UACC-257 melanoma": {"tested_on": "UACC-257 melanoma"}, "MOLT-4 leukemia": {"tested_on": "MOLT-4 leukemia"}, "SW-620 colon": {"tested_on": "SW-620 colon"}, "T-47D breast": {"tested_on": "T-47D breast"}, "KM12 colon": {"tested_on": "KM12 colon"}, "COLO 205 colon": {"tested_on": "COLO 205 colon"}, "MALME-3M melanoma": {"tested_on": "MALME-3M melanoma"}, "RXF 393 renal": {"tested_on": "RXF 393 renal"}, "SK-MEL-28 melanoma": {"tested_on": "SK-MEL-28 melanoma"}, "HCC-2998 colon": {"tested_on": "HCC-2998 colon"}, "SK-OV-3 ovarian": {"tested_on": "SK-OV-3 ovarian"}, "SF-268 CNS": {"tested_on": "SF-268 CNS"}, "SK-MEL-2 melanoma": {"tested_on": "SK-MEL-2 melanoma"}, "UACC-62 melanoma": {"tested_on": "UACC-62 melanoma"}, "HCT-15 colon": {"tested_on": "HCT-15 colon"}, "MDA-MB-231 breast": {"tested_on": "MDA-MB-231 breast"}, "PC-3 prostate": {"tested_on": "PC-3 prostate"}}, "note": "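Following 48 hours of exposure in 96-well plates, responses at five concentrations were used to interpolate endpoints linearly. TGI marks complete inhibition of growth.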"}
{"smiles": "O=C1Nc2ccccc2Cn2c1cc1oc(-c3ccccc3)cc12", "values": [{"measurement": "TGI", "setting": "A498 renal", "value": "> 100", "unit": "µM"}, {"measurement": "TGI", "setting": "MCF7 breast", "value": "> 100", "unit": "µM"}, {"measurement": "TGI", "setting": "SN12C renal", "value": "> 100", "unit": "µM"}, {"measurement": "TGI", "setting": "ACHN renal", "value": "> 100", "unit": "µM"}, {"measurement": "TGI", "setting": "SR leukemia", "value": "> 100", "unit": "µM"}, {"measurement": "TGI", "setting": "TK-10 renal", "value": "> 100", "unit": "µM"}, {"measurement": "TGI", "setting": "HOP-92 NSCLC", "value": 73.7, "unit": "µM"}, {"measurement": "TGI", "setting": "EKVX NSCLC", "value": "> 100", "unit": "µM"}, {"measurement": "TGI", "setting": "K-562 leukemia", "value": "> 100", "unit": "µM"}, {"measurement": "TGI", "setting": "NCI-H460 lung", "value": "> 100", "unit": "µM"}, {"measurement": "TGI", "setting": "U251 CNS", "value": 36.3, "unit": "µM"}, {"measurement": "TGI", "setting": "HT29 colon", "value": "> 100", "unit": "µM"}, {"measurement": "TGI", "setting": "IGROV1 ovarian", "value": "> 100", "unit": "µM"}, {"measurement": "TGI", "setting": "SNB-19 CNS", "value": 66.5, "unit": "µM"}, {"measurement": "TGI", "setting": "A549 NSCLC", "value": "> 100", "unit": "µM"}, {"measurement": "TGI", "setting": "HS 578T breast", "value": 44.3, "unit": "µM"}, {"measurement": "TGI", "setting": "HL-60(TB) leukemia", "value": "> 100", "unit": "µM"}, {"measurement": "TGI", "setting": "MDA-N", "value": "> 100", "unit": "µM"}, {"measurement": "TGI", "setting": "SF-539 CNS", "value": 74.3, "unit": "µM"}, {"measurement": "TGI", "setting": "NCI-H23 lung", "value": "> 100", "unit": "µM"}, {"measurement": "TGI", "setting": "LOX IMVI melanoma", "value": "> 100", "unit": "µM"}, {"measurement": "TGI", "setting": "NCI-H522 lung", "value": "> 100", "unit": "µM"}, {"measurement": "TGI", "setting": "DU-145 prostate", "value": "> 100", "unit": "µM"}, {"measurement": "TGI", "setting": "OVCAR-3 ovarian", "value": "> 100", "unit": "µM"}, {"measurement": "TGI", "setting": "HOP-62 NSCLC", "value": 44.8, "unit": "µM"}, {"measurement": "TGI", "setting": "NCI/ADR-RES ovarian", "value": "> 100", "unit": "µM"}, {"measurement": "TGI", "setting": "786-0 renal", "value": 45.4, "unit": "µM"}, {"measurement": "TGI", "setting": "OVCAR-5 ovarian", "value": "> 100", "unit": "µM"}, {"measurement": "TGI", "setting": "CAKI-1 renal", "value": "> 100", "unit": "µM"}, {"measurement": "TGI", "setting": "MDA-MB-435", "value": "> 100", "unit": "µM"}, {"measurement": "TGI", "setting": "SK-MEL-5 melanoma", "value": "> 100", "unit": "µM"}, {"measurement": "TGI", "setting": "CCRF-CEM leukemia", "value": "> 100", "unit": "µM"}, {"measurement": "TGI", "setting": "OVCAR-8 ovarian", "value": "> 100", "unit": "µM"}, {"measurement": "TGI", "setting": "OVCAR-4 ovarian", "value": "> 100", "unit": "µM"}, {"measurement": "TGI", "setting": "SF-295 CNS", "value": 63.3, "unit": "µM"}, {"measurement": "TGI", "setting": "SNB-75 CNS", "value": 64.2, "unit": "µM"}, {"measurement": "TGI", "setting": "UACC-257 melanoma", "value": "> 100", "unit": "µM"}, {"measurement": "TGI", "setting": "MOLT-4 leukemia", "value": "> 100", "unit": "µM"}, {"measurement": "TGI", "setting": "SW-620 colon", "value": "> 100", "unit": "µM"}, {"measurement": "TGI", "setting": "T-47D breast", "value": 92.6, "unit": "µM"}, {"measurement": "TGI", "setting": "KM12 colon", "value": "> 100", "unit": "µM"}, {"measurement": "TGI", "setting": "COLO 205 colon", "value": "> 100", "unit": "µM"}, {"measurement": "TGI", "setting": "MALME-3M melanoma", "value": "> 100", "unit": "µM"}, {"measurement": "TGI", "setting": "RXF 393 renal", "value": 53, "unit": "µM"}, {"measurement": "TGI", "setting": "SK-MEL-28 melanoma", "value": "> 100", "unit": "µM"}, {"measurement": "TGI", "setting": "HCC-2998 colon", "value": "> 100", "unit": "µM"}, {"measurement": "TGI", "setting": "SK-OV-3 ovarian", "value": 69.9, "unit": "µM"}, {"measurement": "TGI", "setting": "SF-268 CNS", "value": 72.3, "unit": "µM"}, {"measurement": "TGI", "setting": "SK-MEL-2 melanoma", "value": "> 100", "unit": "µM"}, {"measurement": "TGI", "setting": "UACC-62 melanoma", "value": "> 100", "unit": "µM"}, {"measurement": "TGI", "setting": "HCT-15 colon", "value": "> 100", "unit": "µM"}, {"measurement": "TGI", "setting": "MDA-MB-231 breast", "value": 87.2, "unit": "µM"}, {"measurement": "TGI", "setting": "PC-3 prostate", "value": "> 100", "unit": "µM"}]}
